The target in this assay is T1, GPR146 (Homo sapiens, UniProt Q96CH1).
T1 construct: endogenous in cells; host or cells: KATOIII (human stomach carcinoma)
Nature of the assay: C-peptide-induced cFos expression in KATOIII cells after siRNA transfection. In kind it is cell-based. To be noted: 1 nmole C-peptide, 1 hour. On the procedure:
Once the hierarchical candidates were identified and ranked, KATOIII cells were then transfected with siRNA (Integrated DNA technologies) (111) directed against either GPR107 (control), GPR146 (most likely candidate not yet tested) or eGFP (green fluorescent protein—control) using Lipofectamine […] (Invitrogen). Five hours later, the media was changed to serum free control media (ATCC) and the serum was starved overnight. Twenty-four (24) hours after transfection with siRNA, cells were treated with 1 nmole C-peptide (Phoenix Pharmaceuticals) for 1 hour, then lysed and RNA were isolated using an RNeasy Kit (Qiagen). RNA was used as a template from the production of cDNA, and changes in cFos expression were determined using RT-PCR (BioRad 2x iQ SyberGreen Master Mix, using a BioRad CFX real time system). […] As this produced the desired negative response (113), GPR146 was the target GPCR (115). The receptiveness of GPR146 to C-peptide has since been verified by additional conventional tests

T1 sequence (Q96CH1 whole entry): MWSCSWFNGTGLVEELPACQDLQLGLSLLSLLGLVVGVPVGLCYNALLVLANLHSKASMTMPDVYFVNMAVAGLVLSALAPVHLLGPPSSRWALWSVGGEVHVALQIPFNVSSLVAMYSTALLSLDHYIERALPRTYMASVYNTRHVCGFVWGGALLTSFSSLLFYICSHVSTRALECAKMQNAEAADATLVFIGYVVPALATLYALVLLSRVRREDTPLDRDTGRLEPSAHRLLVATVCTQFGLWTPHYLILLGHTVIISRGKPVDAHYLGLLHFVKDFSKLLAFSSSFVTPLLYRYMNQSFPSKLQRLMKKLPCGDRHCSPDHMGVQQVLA

In the case of C-peptide, the “changes in cFos expression” value reads like this: (KATOIII cells transfected with GPR107 siRNA (control)) “increase in cFos”; (KATOIII cells transfected with GPR146 siRNA (GPR146 compromised), FIG. 6) “failed to respond”; (KATOIII cells transfected with Vehicle (Lipofectamine 2000 alone, no siRNA)) “increase in cFos”; (KATOIII cells transfected with sGFPO siRNA (control)) “increase in cFos”.
